Measurements from article PMC6221957, “Phenol Derivatives From the Sponge-Derived Fungus Didymellaceae sp. SCSIO F46” (Frontiers in Chemistry, 2018).

Key:
[1] = Cytotoxicity assay (CCK-8), MCF-7; type: cell-based; settings: human; MCF-7 cells, CCK-8, 72 h; read-out: Cytotoxic results IC50, MCF-7
Experimental: (§1) Cytotoxic activities of the isolated compounds 1–17 and trichostatin A (TSA, positive control) against 10 tumor cell lines (K562, MCF-7, A549, Huh-7, H1975, HeLa, HL7702, HL60, MOLT-4, and DU145) were tested. […]. Cytotoxicity was assayed with the CCK-8 (Dojindo, Japan) method. 10 Cell lines K562, MCF-7, A549, Huh-7, H1975, Hela, HL7702, HL60, MOLT-4, and DU145 were purchased from Shanghai Cell Bank, Chinese Academy of Sciences. Cells were routinely grown and maintained in RPMI or DMEM media with 10% fetal bovine serum and with 1% penicillin/streptomycin. All cell lines were incubated in a Thermo/ Forma Scientific CO2 water-jacketed incubator with 5% CO2 in air at 37 °C. A cell viability assay was determined with the CCK-8 (Dojindo, Japan) assay. Cells were seeded at a density of 400−800 cells/well in 384-well plates and treated with various concentrations of compounds or solvent control. After 72 h incubation, CCK-8 reagent was added, and absorbance was measured at 450 nm using an Envision 2104 multilabel reader (PerkinElmer, USA). Dose−response curves were plotted to determine the IC50 values using Prism 5.0 (GraphPad Software Inc., USA).

[2] = Cytotoxicity assay (CCK-8), A549; type: cell-based; settings: human; A549 cells, CCK-8, 72 h; read-out: Cytotoxic results IC50, A549
Experimental: as §1

[3] = Cytotoxicity assay (CCK-8), HL60; type: cell-based; settings: human; HL60 cells, CCK-8, 72 h; read-out: Cytotoxic results IC50, HL60
Experimental: as §1

[4] = Cytotoxicity assay (CCK-8), HeLa; type: cell-based; settings: human; HeLa cells, CCK-8, 72 h; read-out: Cytotoxic results IC50, HeLa
Experimental: as §1

[5] = Cytotoxicity assay (CCK-8), Huh-7; type: cell-based; settings: human; Huh-7 cells, CCK-8, 72 h; read-out: Cytotoxic results IC50, Huh-7
Experimental: as §1

[6] = Cytotoxicity assay (CCK-8), MOLT-4; type: cell-based; settings: human; MOLT-4 cells, CCK-8, 72 h; read-out: Cytotoxic results IC50, MOLT-4
Experimental: as §1

[7] = tested on: 10 tumor cell lines (K562, MCF-7, A549, Huh-7, H1975, HeLa, HL7702, HL60, MOLT-4, and DU145); test: Cytotoxicity against the panel of 10 tumor cell lines (summary statements); type: cell-based
Experimental: as §1

[8] = as above; type: cell-based; settings: human
Experimental: as §1

[9] = Cytotoxicity assay (CCK-8), K562; type: cell-based; settings: human; K562 cells, CCK-8, 72 h; read-out: Cytotoxic results IC50, K562
Experimental: as §1

[10] = Cytotoxicity assay (CCK-8), HL7702; type: cell-based; settings: human; HL7702 cells, CCK-8, 72 h; read-out: Cytotoxic results IC50, HL7702
Experimental: as §1

[11] = Cytotoxicity assay (CCK-8), H1975; type: cell-based; settings: human; H1975 cells, CCK-8, 72 h; read-out: Cytotoxic results IC50, H1975
Experimental: as §1

[12] = Cytotoxicity assay (CCK-8), DU145; type: cell-based; settings: human; DU145 cells, CCK-8, 72 h; read-out: Cytotoxic results IC50, DU145
Experimental: as §1

[13] = tested on: MCF-7; test: Cytotoxicity assay (CCK-8), MCF-7; type: cell-based; settings: MCF-7 cells, CCK-8, 72 h; read-out: Cytotoxic results IC50, MCF-7
Experimental: as §1

[14] = tested on: A549; test: Cytotoxicity assay (CCK-8), A549; type: cell-based; settings: A549 cells, CCK-8, 72 h; read-out: Cytotoxic results IC50, A549
Experimental: as §1

[15] = tested on: HL60; test: Cytotoxicity assay (CCK-8), HL60; type: cell-based; settings: HL60 cells, CCK-8, 72 h; read-out: Cytotoxic results IC50, HL60
Experimental: as §1

[16] = tested on: HeLa; test: Cytotoxicity assay (CCK-8), HeLa; type: cell-based; settings: HeLa cells, CCK-8, 72 h; read-out: Cytotoxic results IC50, HeLa
Experimental: as §1

[17] = tested on: Huh-7; test: Cytotoxicity assay (CCK-8), Huh-7; type: cell-based; settings: Huh-7 cells, CCK-8, 72 h; read-out: Cytotoxic results IC50, Huh-7
Experimental: as §1

[18] = tested on: MOLT-4; test: Cytotoxicity assay (CCK-8), MOLT-4; type: cell-based; settings: MOLT-4 cells, CCK-8, 72 h; read-out: Cytotoxic results IC50, MOLT-4
Experimental: as §1

[19] = tested on: K562; test: Cytotoxicity assay (CCK-8), K562; type: cell-based; settings: K562 cells, CCK-8, 72 h; read-out: Cytotoxic results IC50, K562
Experimental: as §1

[20] = tested on: HL7702; test: Cytotoxicity assay (CCK-8), HL7702; type: cell-based; settings: HL7702 cells, CCK-8, 72 h; read-out: Cytotoxic results IC50, HL7702
Experimental: as §1

[21] = tested on: H1975; test: Cytotoxicity assay (CCK-8), H1975; type: cell-based; settings: H1975 cells, CCK-8, 72 h; read-out: Cytotoxic results IC50, H1975
Experimental: as §1

[22] = tested on: DU145; test: Cytotoxicity assay (CCK-8), DU145; type: cell-based; settings: DU145 cells, CCK-8, 72 h; read-out: Cytotoxic results IC50, DU145
Experimental: as §1

[23] = target: T1, COX-2 (Ovis aries, UniProt P79208); test: COX-2 inhibitory activity assay (COX (ovine) inhibitor screening kit); type: biochemical; settings: enzyme immunoassay
T1 construct: purchased
T1 sequence (P79208 17-603): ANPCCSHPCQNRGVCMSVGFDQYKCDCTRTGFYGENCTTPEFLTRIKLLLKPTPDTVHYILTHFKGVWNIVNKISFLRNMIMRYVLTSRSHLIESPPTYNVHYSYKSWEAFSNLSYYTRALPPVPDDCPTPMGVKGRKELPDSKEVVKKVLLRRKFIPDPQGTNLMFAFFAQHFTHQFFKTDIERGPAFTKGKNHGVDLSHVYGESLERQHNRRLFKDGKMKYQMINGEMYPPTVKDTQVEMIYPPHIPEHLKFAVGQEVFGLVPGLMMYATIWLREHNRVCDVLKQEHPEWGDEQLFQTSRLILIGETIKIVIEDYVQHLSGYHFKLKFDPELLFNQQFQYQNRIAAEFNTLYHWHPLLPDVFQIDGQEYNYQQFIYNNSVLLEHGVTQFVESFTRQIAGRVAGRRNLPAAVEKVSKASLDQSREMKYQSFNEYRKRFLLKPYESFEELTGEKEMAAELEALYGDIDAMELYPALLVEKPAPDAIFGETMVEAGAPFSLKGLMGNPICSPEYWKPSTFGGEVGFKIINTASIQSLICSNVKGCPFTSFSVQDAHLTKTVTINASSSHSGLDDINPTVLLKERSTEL
Experimental: According to the manufacturer's instructions. The test compounds were dissolved in DMSO and the final concentration was set as 10 μM.
The COX-2 enzyme is a well-established target for anti-inflammatory evaluation. […] The COX-2 enzyme catalyses the biosynthesis of PGH2 from arachidonic acid. In this assay, the PGF2a produced by the reduction of PGH2 with stannous chloride (SnCl2) was measured in this enzyme immunoassay. The stock solutions were prepared in dimethyl sulfoxide, and the final concentration was set as 10 mM for the isolated compounds. The percentage inhibition was calculated by comparison with control incubations.

SMILES | IC50 at 72 h [1] [µM] | IC50 at 72 h [2] [µM] | IC50 at 72 h [3] [µM] | IC50 at 72 h [4] [µM] | IC50 at 72 h [5] [µM] | IC50 at 72 h [6] [µM] | IC50 at 72 h [9] [µM] | IC50 at 72 h [10] [µM] | IC50 at 72 h [11] [µM] | IC50 at 72 h [12] [µM] | other results
COC(=O)c1c(C)cc(O)cc1Oc1cc(C)cc(O)c1 [Compound 3, Diorcinol L] | 10.5 | 17.7 | 9.6 | 7.1 | 5.7 | > 200 | 43.5 | 68.2 | 15.3 | 9.1 | Activities against other five cell lines (in words) ([7]; cell lines other than Huh-7, HeLa, DU145 and HL60): weak activities; IC50 at 72 h ([8]; range over Huh-7, HeLa, DU145 and HL60 cells, read-out: Cytotoxicities IC50 values against Huh-7, HeLa, DU145 and HL60 cells): 5.7 to 9.6 µM; IC50 at 72 h ([8]; range over the tumor cell lines of Table 3, read-out: Cytotoxicities IC50 values in the range over the cell lines): 5.7 to 68.2 µM
CC(/C=C/C(=O)NO)=C\[C@@H](C)C(=O)c1ccc(N(C)C)cc1 [TSA, trichostatin A, reference compound] |  |  |  |  |  |  |  |  |  |  | IC50 [13]: 0.7 µM; IC50 [14]: 0.3 µM; IC50 [15]: 0.04 µM; IC50 [16]: 0.08 µM; IC50 [17]: 0.08 µM; IC50 [18]: 0.03 µM; IC50 [19]: 0.1 µM; IC50 [20]: 0.09 µM; IC50 [21]: 0.09 µM; IC50 [22]: 0.04 µM
Cc1cc(CO)c2c(=O)c3c(O)cccc3oc2c1 [Compound 8, 1-Hydroxy-6-methyl-8-hydroxy-methylxanthone] | 141 | 128 | > 200 | 14.3 | 122 | > 200 | > 200 | 33.8 | > 200 | > 200 | Cytotoxicities against HeLa and HL7702 cells (in words) ([7]; HeLa and HL7702 cells): weak selective cytotoxicities
Cc1cc(O)c(O)c2oc3c(C(=O)O)cc(O)cc3c12 [Compound 6, Porric acid E] |  |  |  |  |  |  |  |  |  |  | IC50 [23]: 3.3 µM
